This experiment deals with Beta-secretase 1 (Homo sapiens, UniProt P56817). Nature of the experiment: In Vitro BACE1 Activity Assay. Particulars: pH 4.5; 22 °C. As for the experimental part: The assay was performed using a 96-well format on a HPLC equipped with four 96-well plate holders. Test compounds were preincubated with enzymes for 30min, followed by the addition of substrate. The solution was then incubated for an additional 30 min at room temperature. After the reaction was terminated, the solution was filtered, and the filtrate was subjected to HPLC analysis. The substrate and product were monitored by fluorescence detection (340nm excitation, 440 nm emission).
Chain of Beta-secretase 1 (P56817 whole entry): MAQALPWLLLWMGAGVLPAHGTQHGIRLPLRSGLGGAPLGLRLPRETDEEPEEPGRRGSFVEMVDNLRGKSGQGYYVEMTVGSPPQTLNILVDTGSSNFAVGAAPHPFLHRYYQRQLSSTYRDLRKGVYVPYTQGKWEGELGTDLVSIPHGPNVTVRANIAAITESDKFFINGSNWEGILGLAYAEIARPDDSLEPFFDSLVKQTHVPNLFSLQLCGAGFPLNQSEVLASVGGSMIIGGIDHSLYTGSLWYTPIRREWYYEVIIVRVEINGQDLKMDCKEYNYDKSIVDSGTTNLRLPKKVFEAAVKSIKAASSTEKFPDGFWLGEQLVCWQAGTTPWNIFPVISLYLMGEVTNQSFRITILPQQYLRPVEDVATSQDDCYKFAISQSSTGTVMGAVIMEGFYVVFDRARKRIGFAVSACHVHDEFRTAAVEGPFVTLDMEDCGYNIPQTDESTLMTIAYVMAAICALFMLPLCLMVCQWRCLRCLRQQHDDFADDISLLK

Some results are limits rather than exact numbers.

The results in this text go back to BindingDB's records for doi:10.1021/jm049388p (Merck Research Laboratories, 2004).

For orientation: IC50 means the concentration needed to halve the response being measured. The low end stands for greater potency in that assay, the high end for weaker potency in that assay.

`C[C@H](NC(=O)c1cc(OCC(=O)NCCCCCN)cc(OS(=O)(=O)Cc2ccccc2)c1)c1ccccc1` [3-{[(5-aminopentyl)carbamoyl]methoxy}-5-{[(1S)-1-phenylethyl]carbamoyl}phenyl 1-phenylmethanesulfonate]: the half-inhibitory concentration (IC50) is over 100 µM.
